Experimental data taken from PubChem BioAssay AID2060506 (Molecular Pharmacology Branch, DTP, NCI, 2025).

Tested on: 598228-144-R-J1-PDC complex spheroid viability
Assay: Anticancer human tumor 598228-144-R-J1-PDC patient-derived serous endometrial adenocarcinoma cell line growth inhibition [GQUAD]
Conditions: for IC50: curve of first compound; for viability, T/C: stronger effect = lower value
Text: DNA G-quadruplex Stabilizer Agents in Combinations in Complex Spheroids
A high-throughput screen of multi-cell type tumor spheroids was designed to identify active combinations of DNA G-quadruplex stabilizer agents and targeted small molecules. Complex spheroids include a stromal component modeled by human endothelial cells (HUVEC) and fibroblasts modeled by human mesenchymal stem cells (MSCs). The concentration ranges selected for each drug and investigational agent were based upon clinically achievable concentrations if the clinical Cmax of the agent was known.
Compounds. The drugs and investigational agents: pidnarulex (CX-5461; NSC782164), APTO-253 (NSC789042), BRACO-19 (NSC847499), peposertib (NSC802822), ceralasertib (NSC780249), elimusertib (NSC800525), camonsertib (NSC841442), AZD-1390 (NSC803789), olaparib (NSC753686), talazoparib (NSC767125), ART-558 (NSC835418), sotorasib (NSC818433), MRTX-1133 (NSC836407), SN-38 (NSC673596), topotecan (NSC609699), etoposide (NSC141540), doxorubicin (NSC123127), gemcitabine (NSC613327), 5-fluorouracil (NSC19893), paclitaxel (NSC125973), vemurafenib (NSC761431), panobinostat (NSC761190), R-306465 (JNJ-16241199; NSC773264), adavosertib (NSC754352), TP-3654 (NSC805149), carboplatin (NSC241240), KSQ-4279 (NSC840948), and staurosporine (NSC755774) were obtained from the National Cancer Institute (NCI) Developmental Therapeutics Program Chemical Repository (34). The FDA-approved anticancer drug set is available from the NCI Developmental Therapeutics Program. […] The stock solutions were prepared in dimethyl sulfoxide (DMSO, Sigma-Aldrich, St. Louis, MO, cat. D2650) at 800-fold the tested concentration and stored at -70 degrees C prior to their use. All drugs and investigational agents were tested over a range starting from a high concentration at or near the clinical Cmax and decreasing in half-log increments. If the clinical Cmax for an agent had not been determined, the highest concentration tested was 10 microM.
2.3 Cell Culture. All cells were maintained in an incubator at 37 degrees C and 5% CO2 with 95% humidity. The PDC lines were cultured according to standard operating procedures established by the NCI PDMR. All PDCs were thawed and cultured in Matrigel-coated flasks prepared with a working solution of 1X Ham's F-12 nutrient mix, without supplementation (Invitrogen, cat. 11765054), 100 U/mL penicillin-streptomycin (Invitrogen, cat. 15140122), and 2.5% Matrigel (Corning Inc., cat. 354248) for the first three passages. The 857933-349-R-J2-PDC line was cultured in 6C/Colon 1B media, which includes advanced DMEM/F-12 (Thermo Fisher Scientific, cat. 12634028), 10 mM HEPES (Thermo Fisher Scientific, cat. 15630080), 1X GlutaMAX supplement (Thermo Fisher Scientific, cat. 35050061), 0.1 mg/mL primocin (InvivoGen, cat. ant-pm-2), 10% defined fetal bovine serum, heat inactivated (HyClone Laboratories Inc., cat. SH30070.03HI), 50% L-WRN conditioned media (ATCC, cat. CRL-3276), 1.25 mM N-Acetyl-L-cysteine (Sigma-Aldrich, cat. A9165), 10 mM nicotinamide (Sigma-Aldrich, cat. N0636), 1X B-27 supplement (Thermo Fisher Scientific, cat. 17504044), 1X N-2 supplement (Thermo Fisher Scientific, cat. 17502048), 10 microM Y-27632 dihydrochloride (Tocris Bioscience, cat. 1254), and 50 ng/mL human EGF recombinant protein (Thermo Fisher Scientific, cat. PHG0311). The 485176-168-R4-J1-PDC line was cultured in Panc media, which includes all 6C/Colon 1B media components plus 100 ng/mL human FGF-10 (Thermo Fisher Scientific, cat. 100-26), 500 nM SB-431542 (Selleckchem, cat. S1067), and gastrin (Tocris, cat. 3006).
[…]

[1] = second compound 0.0316 µM, first compound 0.000999 µM
[2] = second compound 0.0316 µM, first compound 0.00316 µM
[3] = second compound 0.0316 µM, first compound 0.00999 µM
[4] = second compound 0.0316 µM, first compound 0.0316 µM
[5] = second compound 0.0316 µM, first compound 0.0999 µM
[6] = second compound 0.0316 µM, first compound 0.316 µM
[7] = second compound 0.1 µM, first compound 0.000999 µM
[8] = second compound 0.1 µM, first compound 0.00316 µM
[9] = second compound 0.1 µM, first compound 0.00999 µM
[10] = second compound 0.1 µM, first compound 0.0316 µM
[11] = second compound 0.1 µM, first compound 0.0999 µM
[12] = second compound 0.1 µM, first compound 0.316 µM
[13] = second compound 0.316 µM, first compound 0.000999 µM
[14] = second compound 0.316 µM, first compound 0.00316 µM
[15] = second compound 0.316 µM, first compound 0.00999 µM
[16] = second compound 0.316 µM, first compound 0.0316 µM
[17] = second compound 0.316 µM, first compound 0.0999 µM
[18] = second compound 0.316 µM, first compound 0.316 µM
[19] = second compound 1 µM, first compound 0.000999 µM
[20] = second compound 1 µM, first compound 0.00316 µM
[21] = second compound 1 µM, first compound 0.00999 µM
[22] = second compound 1 µM, first compound 0.0316 µM
[23] = second compound 1 µM, first compound 0.0999 µM
[24] = second compound 1 µM, first compound 0.316 µM
[25] = second compound 3.16 µM, first compound 0.000999 µM
[26] = second compound 3.16 µM, first compound 0.00316 µM
[27] = second compound 3.16 µM, first compound 0.00999 µM
[28] = second compound 3.16 µM, first compound 0.0316 µM
[29] = second compound 3.16 µM, first compound 0.0999 µM
[30] = second compound 3.16 µM, first compound 0.316 µM
[31] = second compound 10 µM, first compound 0.000999 µM
[32] = second compound 10 µM, first compound 0.00316 µM
[33] = second compound 10 µM, first compound 0.00999 µM
[34] = second compound 10 µM, first compound 0.0316 µM
[35] = second compound 10 µM, first compound 0.0999 µM
[36] = second compound 10 µM, first compound 0.316 µM
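Also: spheroids exposed to the agents for one week before reading.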
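For viability, T/C in this document: percent of vehicle DMSO control viability so 100% = untreated growth.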

Cn1ncnc1[C@H]1c2n[nH]c(=O)c3cc(F)cc(c23)N[C@@H]1c1ccc(F)cc1 + CN(C)c1ccc(Nc2c3ccc(NC(=O)CCN4CCCC4)cc3nc3cc(NC(=O)CCN4CCCC4)ccc23)cc1
IC50 (second compound 0.0316 µM): > 316 nM | IC50 (second compound 0.1 µM): > 316 nM | IC50 (second compound 0.316 µM): > 316 nM | IC50 (second compound 1 µM): > 316 nM | IC50 (second compound 3.16 µM): > 316 nM | IC50 (second compound 10 µM): > 316 nM | viability, T/C [1]: 118% | viability, T/C [2]: 93.2% | viability, T/C [3]: 103% | viability, T/C [4]: 86.3% | viability, T/C [5]: 80.8% | viability, T/C [6]: 76.8% | viability, T/C [7]: 104% | viability, T/C [8]: 97.5% | viability, T/C [9]: 100% | viability, T/C [10]: 80.8% | viability, T/C [11]: 87.8% | viability, T/C [12]: 76.2% | viability, T/C [13]: 106% | viability, T/C [14]: 108% | viability, T/C [15]: 100% | viability, T/C [16]: 106% | viability, T/C [17]: 87.6% | viability, T/C [18]: 62% | viability, T/C [19]: 101% | viability, T/C [20]: 97.3% | viability, T/C [21]: 114% | viability, T/C [22]: 110% | viability, T/C [23]: 95.7% | viability, T/C [24]: 81.2% | viability, T/C [25]: 112% | viability, T/C [26]: 112% | viability, T/C [27]: 91.8% | viability, T/C [28]: 80.7% | viability, T/C [29]: 93.1% | viability, T/C [30]: 69.8% | viability, T/C [31]: 91.7% | viability, T/C [32]: 86.3% | viability, T/C [33]: 96.2% | viability, T/C [34]: 68.7% | viability, T/C [35]: 73.2% | viability, T/C [36]: 53.7%

CC[C@@]1(O)C(=O)OCc2c1cc1n(c2=O)Cc2cc3c(CN(C)C)c(O)ccc3nc2-1 + Cc1[nH]c2ccc(F)cc2c1-c1nc2c3cccnc3c3ncccc3c2[nH]1
IC50 (second compound 0.0316 µM): > 316 nM | IC50 (second compound 0.1 µM): > 316 nM | IC50 (second compound 0.316 µM): > 316 nM | IC50 (second compound 1 µM): 22.9 nM | IC50 (second compound 3.16 µM): < 0.999 nM | IC50 (second compound 10 µM): 31 nM | viability, T/C [1]: 106% | viability, T/C [2]: 105% | viability, T/C [3]: 93.5% | viability, T/C [4]: 90.7% | viability, T/C [5]: 63.1% | viability, T/C [6]: 71.5% | viability, T/C [7]: 104% | viability, T/C [8]: 95.4% | viability, T/C [9]: 84.4% | viability, T/C [10]: 88.7% | viability, T/C [11]: 58% | viability, T/C [12]: 62.3% | viability, T/C [13]: 86.8% | viability, T/C [14]: 83.7% | viability, T/C [15]: 61.9% | viability, T/C [16]: 64.6% | viability, T/C [17]: 75% | viability, T/C [18]: 52.3% | viability, T/C [19]: 64.6% | viability, T/C [20]: 76.8% | viability, T/C [21]: 59.3% | viability, T/C [22]: 44.7% | viability, T/C [23]: 53.4% | viability, T/C [24]: 41.2% | viability, T/C [25]: 39.1% | viability, T/C [26]: 57.1% | viability, T/C [27]: 39.9% | viability, T/C [28]: 35.7% | viability, T/C [29]: 33.6% | viability, T/C [30]: 31.4% | viability, T/C [31]: 71.6% | viability, T/C [32]: 58.9% | viability, T/C [33]: 63.3% | viability, T/C [34]: 41.5% | viability, T/C [35]: 50.1% | viability, T/C [36]: 34.7%
